This is an account of results in patent US20250197372A1 (priority 2020, published 2025).

pIC50: −log10 of the molar value. Where only a bound is given, the exact number is not on record here.

Format in all cases: biochemical
Assay [1] addresses T1, recombinant alpha-glucosidase I (human full-length glucosidase I, Glu 1) (Homo sapiens, UniProt Q13724).
T1 construct: 6-His (C); made in house; host or cells: HEK-293T cells transduced with BacMam virus (virus raised in Sf9)
T1 sequence (Q13724 1-837): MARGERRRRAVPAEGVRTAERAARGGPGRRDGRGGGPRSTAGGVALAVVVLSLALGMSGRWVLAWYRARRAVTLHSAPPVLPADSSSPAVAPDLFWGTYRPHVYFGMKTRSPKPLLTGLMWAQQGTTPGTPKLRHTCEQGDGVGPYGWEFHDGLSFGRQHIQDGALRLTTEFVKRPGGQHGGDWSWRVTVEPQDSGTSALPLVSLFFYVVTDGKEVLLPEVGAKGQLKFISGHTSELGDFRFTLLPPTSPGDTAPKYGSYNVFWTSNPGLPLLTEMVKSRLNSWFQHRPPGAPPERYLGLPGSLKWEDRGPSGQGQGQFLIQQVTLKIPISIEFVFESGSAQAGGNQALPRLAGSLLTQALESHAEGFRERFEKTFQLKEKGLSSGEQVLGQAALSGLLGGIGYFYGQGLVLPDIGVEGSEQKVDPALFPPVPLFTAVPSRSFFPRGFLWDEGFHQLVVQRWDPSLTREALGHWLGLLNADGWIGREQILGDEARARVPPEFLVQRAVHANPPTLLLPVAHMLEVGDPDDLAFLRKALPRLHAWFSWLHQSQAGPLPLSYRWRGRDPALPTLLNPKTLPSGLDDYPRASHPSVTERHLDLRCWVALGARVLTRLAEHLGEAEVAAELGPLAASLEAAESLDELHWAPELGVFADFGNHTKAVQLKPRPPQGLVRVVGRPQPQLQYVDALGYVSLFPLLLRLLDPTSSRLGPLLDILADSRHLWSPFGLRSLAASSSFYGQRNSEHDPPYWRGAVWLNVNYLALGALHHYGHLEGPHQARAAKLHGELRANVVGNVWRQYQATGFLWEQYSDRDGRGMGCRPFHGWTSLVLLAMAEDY
Briefly: Alpha-glucosidase I assay (Amplex Red glucose detection, synthetic trisaccharide substrate). Particulars: Glucosidase 1; read-out: Glu 1 IC50. The method in brief: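 Human full-length glucosidase I, His-tagged, […] and Ni-purified. Enzyme preincubated with compound dilutions 60 min at 37° C, then synthetic trisaccharide substrate 90 min at 37° C; stopped with 1.5M Tris pH 8.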

Assay [2] deals with T2, recombinant alpha-glucosidase II (murine full-length glucosidase II, alpha and beta subunits, Glu 2) (Mus musculus, UniProt Q8BHN3).
T2 construct: made in house; host or cells: HEK-293T cells transduced with BacMam viruses (75% alpha, 25% beta); protein harvested from culture supernatant
In words: Alpha-glucosidase II assay (4-methylumbelliferyl-alpha-D-pyranoside substrate, fluorescence). Particulars: Glucosidase 2; read-out: Glu2 IC50.

In assay [3] the target is recombinant human GAA (acid alpha-glucosidase) (Homo sapiens, UniProt P10253). Briefly: Acid alpha-glucosidase (GAA) assay (4-methylumbelliferyl-alpha-D-pyranoside substrate, fluorescence). A digest of the protocol: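 Recombinant human enzyme preincubated 60 min at 37 °C with compound dilutions, then 4-methylumbelliferyl-alpha-D-pyranoside substrate added for 20 min at 37 °C. Stopped with glycine/NaOH pH 10; methylumbelliferone fluorescence (ex 365, em 440 nm) versus untreated enzyme; IC50 by 4-PL fit.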

As a reminder, the pIC50 is the negative decadic logarithm of the IC50, by convention in mol/L.

T2 sequence (O08795 15-521): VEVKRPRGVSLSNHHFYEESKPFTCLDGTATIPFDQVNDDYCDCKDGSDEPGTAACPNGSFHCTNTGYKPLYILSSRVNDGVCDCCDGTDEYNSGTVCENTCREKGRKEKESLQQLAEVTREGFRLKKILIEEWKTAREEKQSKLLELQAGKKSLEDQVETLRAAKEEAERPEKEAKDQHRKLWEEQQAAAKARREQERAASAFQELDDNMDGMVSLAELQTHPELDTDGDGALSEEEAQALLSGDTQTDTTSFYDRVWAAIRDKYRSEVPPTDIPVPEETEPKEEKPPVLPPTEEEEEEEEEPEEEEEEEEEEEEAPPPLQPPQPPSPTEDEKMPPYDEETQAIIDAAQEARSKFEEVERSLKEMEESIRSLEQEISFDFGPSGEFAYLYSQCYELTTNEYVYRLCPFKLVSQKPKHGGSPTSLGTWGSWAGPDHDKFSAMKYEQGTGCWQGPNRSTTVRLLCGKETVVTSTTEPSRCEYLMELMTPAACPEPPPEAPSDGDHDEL
T2 sequence (Q8BHN3 33-944): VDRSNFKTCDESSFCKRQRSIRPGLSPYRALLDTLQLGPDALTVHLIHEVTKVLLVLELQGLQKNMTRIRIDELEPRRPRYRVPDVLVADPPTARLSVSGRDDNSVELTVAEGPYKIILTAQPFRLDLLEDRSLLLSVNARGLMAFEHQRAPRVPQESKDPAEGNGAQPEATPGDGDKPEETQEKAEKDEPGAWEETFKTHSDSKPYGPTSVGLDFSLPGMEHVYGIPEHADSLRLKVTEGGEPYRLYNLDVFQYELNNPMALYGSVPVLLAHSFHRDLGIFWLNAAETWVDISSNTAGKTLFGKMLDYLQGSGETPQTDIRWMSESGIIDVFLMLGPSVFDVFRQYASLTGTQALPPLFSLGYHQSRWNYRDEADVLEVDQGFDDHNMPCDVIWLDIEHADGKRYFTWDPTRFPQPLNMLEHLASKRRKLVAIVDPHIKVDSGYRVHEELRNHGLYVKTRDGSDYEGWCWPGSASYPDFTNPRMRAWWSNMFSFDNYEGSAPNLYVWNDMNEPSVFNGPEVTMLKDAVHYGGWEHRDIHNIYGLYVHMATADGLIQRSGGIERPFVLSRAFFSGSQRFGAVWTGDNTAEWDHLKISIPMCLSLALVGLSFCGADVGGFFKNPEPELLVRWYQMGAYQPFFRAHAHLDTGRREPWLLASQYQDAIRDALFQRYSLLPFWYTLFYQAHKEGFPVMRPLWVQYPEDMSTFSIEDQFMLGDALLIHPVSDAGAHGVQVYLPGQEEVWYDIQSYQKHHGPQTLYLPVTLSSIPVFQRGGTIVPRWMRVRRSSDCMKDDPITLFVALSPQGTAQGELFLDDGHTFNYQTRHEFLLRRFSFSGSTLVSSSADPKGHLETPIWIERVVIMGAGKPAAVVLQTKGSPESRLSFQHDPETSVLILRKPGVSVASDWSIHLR

Take `[N-]=[N+]=Nc1ccc(NCc2ccc(Cc3ccc(CN4C[C@H](O)[C@@H](O)[C@H](O)[C@H]4CO)cc3)cc2)c([N+](=O)[O-])c1` [Compound 1105, (2R,3R,4R,5S)-1-({4-[(4-{[(4-azido-2-nitrophenyl)amino]methyl}phenyl)methyl]phenyl}methyl)-2-(hydroxymethyl)piperidine-3,4,5-triol]: the negative logarithm of the IC50 (pIC50) is 7.80 in assay [1], 6.82 in assay [2] and 7.22 in assay [3].

Consider `N#Cc1cc(NCc2cccc(CN3C[C@H](O)[C@@H](O)[C@H](O)[C@H]3CO)c2)cc(-c2ccc[nH]2)c1` [Compound 1045, 3-(1H-pyrrol-2-yl)-5-{[(3-{[(2R,3R,4R,5S)-3,4,5-trihydroxy-2-(hydroxymethyl)piperidin-1-yl]methyl}phenyl)methyl]amino}benzonitrile], for which the pIC50 was above 9.00 in assay [1], 5.11 in assay [2] and 5.71 in assay [3].

For the molecule `Cc1cc(NCc2ccc(CN3C[C@H](O)[C@@H](O)[C@H](O)[C@H]3CO)cc2)cc(-c2ccc[nH]2)c1` [Compound 1051, (2R,3R,4R,5S)-2-(hydroxymethyl)-1-{[4-({[3-methyl-5-(1H-pyrrol-2-yl)phenyl]amino}methyl)phenyl]methyl}piperidine-3,4,5-triol], the pIC50 in assay [1] is 7.32; in assay [2] it was 6.67; in assay [3], 6.54.

Take `COc1cc(NCCc2ccc(CCN3C[C@H](O)[C@@H](O)[C@H](O)[C@H]3CO)cc2)cc(-c2noc(C3CCC3)n2)c1` [Compound 1120, (2R,3R,4R,5S)-1-{2-[4-(2-{[3-(5-cyclobutyl-1,2,4-oxadiazol-3-yl)-5-methoxyphenyl]amino}ethyl)phenyl]ethyl}-2-(hydroxymethyl)piperidine-3,4,5-triol]: the pIC50 in assay [1] is 5.95; in assay [2], 9.00; in assay [3] it was 6.24.

`O=[N+]([O-])c1cc(-c2ncco2)ccc1NCCc1ccc(CCN2C[C@H](O)[C@@H](O)[C@H](O)[C@H]2CO)cc1` [Compound 1112, (2R,3R,4R,5S)-2-(hydroxymethyl)-1-{2-[4-(2-{[2-nitro-4-(1,3-oxazol-2-yl)phenyl]amino}ethyl)phenyl]ethyl}piperidine-3,4,5-triol]: the pIC50 was 7.05 in assay [1], 7.00 in assay [2] and 6.98 in assay [3].

On to `CS(=O)(=O)c1cc(NCc2ccc(CN3C[C@H](O)[C@@H](O)[C@H](O)[C@H]3CO)cc2)cc(N2CCOCC2)c1` [Compound 1054, (2R,3R,4R,5S)-2-(hydroxymethyl)-1-{[4-({[3-methanesulfonyl-5-(morpholin-4-yl)phenyl]amino}methyl)phenyl]methyl}piperidine-3,4,5-triol], for which the results for the pIC50 in assay [1], in assay [2] and in assay [3] were 6.99, 5.66 and 6.43, respectively.

Turning to `O=[N+]([O-])c1cc(-c2cccnn2)ccc1NCc1ccc(CN2C[C@H](O)[C@@H](O)[C@H](O)[C@H]2CO)cc1` [Compound 1101, (2R,3R,4R,5S)-2-(hydroxymethyl)-1-{[4-({[2-nitro-4-(pyridazin-3-yl)phenyl]amino}methyl)phenyl]methyl}piperidine-3,4,5-triol], the pIC50 in assay [1] was above 9.00; in assay [2], 7.37; in assay [3], 7.60.

In the case of `OC[C@@H]1[C@@H](O)[C@H](O)[C@@H](O)CN1CCCCCCNc1cc(C2CC2)cc(N2CCOCC2)c1` [Compound 1006, (2R,3R,4R,5S)-1-(6-{[3-cyclopropyl-5-(morpholin-4-yl)phenyl]amino}hexyl)-2-(hydroxymethyl)piperidine-3,4,5-triol], the figures for the pIC50 in assay [1], in assay [2] and in assay [3] were 6.66, 9.00 and 6.91, respectively.

With `N#Cc1cc(NCc2ccc(CN3C[C@H](O)[C@@H](O)[C@H](O)[C@H]3CO)cc2)cc(-c2cccnn2)c1` [Compound 1064, 3-(pyridazin-3-yl)-5-{[(4-{[(2R,3R,4R,5S)-3,4,5-trihydroxy-2-(hydroxymethyl)piperidin-1-yl]methyl}phenyl)methyl]amino}-benzonitrile], the values for the negative logarithm of the IC50 (pIC50) in assay [1], in assay [2] and in assay [3] were 7.92, 8.70 and 7.41, respectively.

Turning to `Cc1cc(NCc2ccc(CN3C[C@H](O)[C@@H](O)[C@H](O)[C@H]3CO)cc2)cc(-c2ncccn2)c1` [Compound 1053, (2R,3R,4R,5S)-2-(hydroxymethyl)-1-{[4-({[3-methyl-5-(pyrimidin-2-yl)phenyl]amino}methyl)phenyl]methyl}piperidine-3,4,5-triol], the pIC50 in assay [1] is 6.98; in assay [2] it was 6.86; in assay [3] it was 6.93.

`[N-]=[N+]=Nc1ccc(NCC[C@H]2CC[C@H](CCN3C[C@H](O)[C@@H](O)[C@H](O)[C@H]3CO)CC2)c([N+](=O)[O-])c1` [Compound 1107, (2R,3R,4R,5S)-2-(hydroxymethyl)-1-{2-[(1r,4r)-4-{2-[(4-azido-2-nitrophenyl)amino]ethyl}cyclohexyl]ethyl}piperidine-3,4,5-triol]: the pIC50 in assay [1] was 6.97; in assay [2], 7.39; in assay [3], 5.50.

For `O=C(O)c1cc(Cl)cc(NCCc2ccc(CCN3C[C@H](O)[C@@H](O)[C@H](O)[C@H]3CO)cc2)c1` [Compound 1117, 3-chloro-5-{[2-(4-{2-[(2R,3R,4R,5S)-3,4,5-trihydroxy-2-(hydroxymethyl)piperidin-1-yl]ethyl}phenyl)ethyl]amino}benzoic acid], the negative logarithm of the IC50 (pIC50) is 6.06 in assay [1], 6.86 in assay [2] and 6.30 in assay [3].

Turning to `COC(=O)c1cc(Cl)cc(NCCc2ccc(CCN3C[C@H](O)[C@@H](O)[C@H](O)[C@H]3CO)cc2)c1` [Compound 1116, methyl 3-chloro-5-{[2-(4-{2-[(2R,3R,4R,5S)-3,4,5-trihydroxy-2-(hydroxymethyl)piperidin-1-yl]ethyl}phenyl)ethyl]amino}benzoate], the values for the pIC50 in assay [1], in assay [2] and in assay [3] were 5.87, above 9.00 and 6.37, respectively.

On to `OC[C@@H]1[C@@H](O)[C@H](O)[C@@H](O)CN1Cc1ccc(CNc2ccc(-c3ccc[nH]3)cc2)cc1` [Compound 1094, (2R,3R,4R,5S)-2-(hydroxymethyl)-1-{[4-({[4-(1H-pyrrol-2-yl)phenyl]amino}methyl)phenyl]methyl}piperidine-3,4,5-triol], for which the pIC50 in assay [1] is 7.55; in assay [2], 6.75; in assay [3], 6.61.

Take `O=[N+]([O-])c1cc(N2CCOCC2)ccc1NCc1ccc(CN2C[C@@H](O)[C@H](O)[C@@H](O)[C@@H]2CO)cc1` (stereo in doubt) [Compound 1069, (2S,3S,4S,5R)-2-(hydroxymethyl)-1-{[4-({[4-(morpholin-4-yl)-2-nitrophenyl]amino}methyl)phenyl]methyl}piperidine-3,4,5-triol]: the negative logarithm of the IC50 (pIC50) was 7.66 in assay [1], 8.40 in assay [2] and 7.17 in assay [3].

Take `[N-]=[N+]=Nc1ccc(NCCc2cc(CCN3C[C@H](O)[C@@H](O)[C@H](O)[C@H]3CO)cc(C3CCCCC3)c2)c([N+](=O)[O-])c1` [Compound 1115, (2R,3R,4R,5S)-1-[2-(3-{2-[(4-azido-2-nitrophenyl)amino]ethyl}-5-cyclohexylphenyl)ethyl]-2-(hydroxymethyl)piperidine-3,4,5-triol]: the pIC50 in assay [1] was 7.00; in assay [2], 5.97; in assay [3], 5.26.
